Here are results for 14 compounds from patent US20250179028A1, “ACRYLAMIDE COMPOUNDS” (NRG THERAPEUTICS LTD, priority 2022, published 2025).

One series deals with mPTP. Kind of series: mPTP activity (Ca2+ retention) assay in isolated rat liver mitochondria. It is filed as biochemical. The settings on record: isolated rat liver mitochondria. An outline of the steps: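 Freshly isolated female Sprague Dawley rat liver mitochondria were energised with succinate and rotenone in pH 7.4 buffer with Fluo5N, then pre-incubated 10 min at RT with compound (30 μM to 1 nM final) before a 75 μM CaCl2 bolus. The IC50 used 10-min fluorescence, normalised to DMSO and 5 μM cyclosporin A.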

Series [1] in a line: PBS and FaSSIF solubility. It is filed as physicochemical. Particulars: kinetic from dmso stock. A digest of the protocol:
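Solubility was measured from 10 mM DMSO stocks diluted into FaSSIF or PBS pH 7.4, in duplicate, then shaken at 1100 rpm for 2 hr at 25 °C. Filtrates were quantified by LC-MS/MS against an internal standard and a known-concentration standard.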

Series [2] is described as follows: Hepatocyte clearance assay, rat. It is filed as in vitro ADME. The settings on record: cryopreserved primary rat hepatocytes, average value from two experiments, read-out: Rat heps Clint. An outline of the steps: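 Cryopreserved rat or human hepatocytes, 0.5×10^6 viable cells/mL in L-15 medium, incubated with compound at 37 °C; samples to 120 min, duplicate. Parent loss by LC/MS/MS; t½ = 0.693/k from ln-linear regression, converted to CLint in μL/min/1×10^6 cells.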

Where [3] appears, read: average value from multiple experiments (n ≥ 2).
The mark [4] stands for this setting: aqueous buffer, PBS pH 7.4, 2 hr at 25° C., read-out: Solubility PBS (pH 7.4).
The mark [5] stands for this setting: fasted state simulated intestinal fluid (FaSSIF), fassif, Fasted state simulated intestinal fluid, 2 hr at 25° C., read-out: Solubility FaSSIF.

The structures appear in SMILES notation. In brackets after ≈: the same amount, converted by molar mass. Like-named read-outs stand apart in the source and are kept apart here. Marks after values point to notes of the source that are not given here.

`Cc1c(F)cccc1NC(=O)/C=C/c1ccc2cn[nH]c2c1` [Comparative Example 1, (E)-N-(2-methyl-3-fluorophenyl)-3-(1H-indazol-6-yl)acrylamide, reference compound]: the “mPTP Rat liver pIC50” value is listed as 7.8*** in the series with mPTP (average value from a larger number of experiments) and 8.0 in the series with mPTP (setting [3]). Further, the values for the solubility at 2 h in series [1] (setting [4]) and in series [1] (setting [5]) were 0.9 µM (≈ 0.266 µg/mL) and 4 µM (≈ 1.18 µg/mL), respectively. For the same compound, the hepatocyte CLint at 1 µM in series [2] amounted to 89 µL/min/1e6 cells.

In the case of `Cc1c(F)cccc1NC(=O)/C=C/c1ccc2c(c1F)NC(=O)C2` [Example 5, (E)-N-(3-fluoro-2-methylphenyl)-3-(7-fluoro-2-oxoindolin-6-yl)acrylamide], the “mPTP Rat liver pIC50” value with mPTP (setting [3]) was determined as 6.7. Further, the solubility at 2 h was 6.78 µM (≈ 2.23 µg/mL) in series [1] (setting [4]) and 66 µM (≈ 21.7 µg/mL) in series [1] (setting [5]). The hepatocyte CLint at 1 µM in series [2] was 27 µL/min/1e6 cells.

For `Cc1c(F)cccc1NC(=O)/C=C/c1ccc2oc(=O)[nH]c2c1` [Example 6, (E)-N-(3-fluoro-2-methylphenyl)-3-(2-oxo-2,3-dihydrobenzo[d]oxazol-5-yl)acrylamide], the “mPTP Rat liver pIC50” value with mPTP (setting [3]) amounted to 6.8. Also, the solubility at 2 h in series [1] (setting [4]) is 3.71 µM (≈ 1.16 µg/mL); in series [1] (setting [5]) it was 16 µM (≈ 5 µg/mL). For the same compound, the hepatocyte CLint at 1 µM in series [2] is 53.3 µL/min/1e6 cells.

With `Cc1c(F)cccc1NC(=O)/C=C/c1ccc2c(c1)[nH]c(=O)n2C` [Example 7, (E)-N-(3-fluoro-2-methylphenyl)-3-(1-methyl-2-oxo-2,3-dihydro-1H-benzo[d]imidazol-5-yl)acrylamide], the “mPTP Rat liver pIC50” value in the series with mPTP (setting [3]) amounted to 6.8. Further, the solubility at 2 h in series [1] (setting [4]) is 1.4 µM (≈ 0.455 µg/mL); in series [1] (setting [5]), 22.5 µM (≈ 7.32 µg/mL). The hepatocyte CLint at 1 µM in series [2] came out at 27 µL/min/1e6 cells.

As to `Cc1c(F)cccc1NC(=O)/C=C/c1ccc2c(c1)NC(=O)C2C` (centres unmarked) [Example 8, (E)-N-(3-fluoro-2-methylphenyl)-3-(3-methyl-2-oxoindolin-6-yl)acrylamide], in the series on mPTP (setting [3]), the “mPTP Rat liver pIC50” value is 5.9. For the same compound, the solubility at 2 h in series [1] (setting [4]) was 33.6 µM (≈ 10.9 µg/mL); in series [1] (setting [5]) it was 220 µM (≈ 71.3 µg/mL). The hepatocyte CLint at 1 µM in series [2] was found to be 46 µL/min/1e6 cells.

For `Cc1c(F)cccc1NC(=O)/C=C/c1ccc2c(c1)NC(=O)C2` [Example 10, (E)-N-(3-fluoro-2-methylphenyl)-3-(2-oxoindolin-6-yl)acrylamide], in the series with mPTP (setting [3]), the “mPTP Rat liver pIC50” value amounted to 6.7. The solubility at 2 h in series [1] (setting [4]) was 4.7 µM (≈ 1.46 µg/mL); in series [1] (setting [5]) it was 74 µM (≈ 23 µg/mL). Besides, the hepatocyte CLint at 1 µM in series [2] amounted to 21.1 µL/min/1e6 cells.

Regarding `Cc1cccc(C)c1NC(=O)/C=C/c1ccc2c(c1)NC(=O)C2` [Example 19, (E)-N-(2,6-dimethylphenyl)-3-(2-oxoindolin-6-yl)acrylamide], the “mPTP Rat liver pIC50” value in the series on mPTP (setting [3]) worked out at 6.2. For the same compound, the solubility at 2 h in series [1] (setting [4]) was 134 µM (≈ 41.1 µg/mL); in series [1] (setting [5]), 196 µM (≈ 60.2 µg/mL). Besides, the hepatocyte CLint at 1 µM in series [2] turned out to be 9.1 µL/min/1e6 cells.

Regarding `CCn1c(=O)[nH]c2cc(/C=C/C(=O)Nc3cccc(F)c3C)ccc21` [Example 22, (E)-3-(1-ethyl-2-oxo-2,3-dihydro-1H-benzo[d]imidazol-5-yl)-N-(3-fluoro-2-methylphenyl)acrylamide], the “mPTP Rat liver pIC50” value with mPTP (setting [3]) was 6.6. Further, the solubility at 2 h in series [1] (setting [4]) worked out at 0.4 µM (≈ 0.136 µg/mL). The hepatocyte CLint at 1 µM in series [2] was 26.1 µL/min/1e6 cells.

For the compound `Cc1c(F)cccc1NC(=O)/C=C/c1ccc2c(c1)[nH]c(=O)n2C1CC1` [Example 23, (E)-3-(1-cyclopropyl-2-oxo-2,3-dihydro-1H-benzo[d]imidazol-5-yl)-N-(3-fluoro-2-methylphenyl)acrylamide], the “mPTP Rat liver pIC50” value in the series on mPTP (setting [3]) was 6.6. Further, the solubility at 2 h in series [1] (setting [4]) turned out to be 6.13 µM (≈ 2.15 µg/mL). Also, the hepatocyte CLint at 1 µM in series [2] stood at 35.7 µL/min/1e6 cells.

`Cc1n[nH]c2cc(/C=C/C(=O)NC3CCc4ccccc43)ccc12` (centres unmarked) [Example 25, (E)-N-(2,3-dihydro-1H-inden-1-yl)-3-(3-methyl-1H-indazol-6-yl)acrylamide]: in the series with mPTP (setting [3]), the “mPTP Rat liver pIC50” value worked out at 6.9. In addition, the solubility at 2 h in series [1] (setting [4]) turned out to be 3.69 µM (≈ 1.17 µg/mL). Moreover, the hepatocyte CLint at 1 µM in series [2] turned out to be 36.3 µL/min/1e6 cells.

Consider `Cc1ccc(F)c(C)c1NC(=O)/C=C/c1ccc2c(c1)[nH]c(=O)n2C` [Example 30, (E)-N-(3-fluoro-2,6-dimethylphenyl)-3-(1-methyl-2-oxo-2,3-dihydro-1H-benzo[d]imidazol-5-yl)acrylamide], for which the “mPTP Rat liver pIC50” value with mPTP (setting [3]) is recorded as 7.4. Moreover, the solubility at 2 h in series [1] (setting [4]) is 5.73 µM (≈ 1.94 µg/mL); in series [1] (setting [5]), 135 µM (≈ 46 µg/mL). Also, in series [2], the hepatocyte CLint at 1 µM turned out to be 12.1 µL/min/1e6 cells.

With `Cc1c(F)cccc1NC(=O)/C(F)=C/c1ccc2c(c1)NC(=O)C2` [Example 47, (Z)-2-fluoro-N-(3-fluoro-2-methylphenyl)-3-(2-oxoindolin-6-yl)acrylamide], the “mPTP Rat liver pIC50” value with mPTP (setting [3]) is 5.9. Further, the solubility at 2 h in series [1] (setting [4]) was 0.5 µM (≈ 0.164 µg/mL).

In the case of `CO[C@H]1Cc2ccccc2[C@@H]1NC(=O)/C=C/c1ccc2c(C)n[nH]c2c1` [Example 54, (E)-N-((1S,2S)-2-methoxy-2,3-dihydro-1H-inden-1-yl)-3-(3-methyl-1H-indazol-6-yl)acrylamide], the “mPTP Rat liver pIC50” value with mPTP (setting [3]) turned out to be 7.6. For the same compound, the solubility at 2 h in series [1] (setting [5]) is 22 µM (≈ 7.63 µg/mL). In addition, the hepatocyte CLint at 1 µM in series [2] is 39.4 µL/min/1e6 cells.

As for `CO[C@H]1Cc2ccccc2[C@@H]1NC(=O)/C=C/c1ccc2c(F)n[nH]c2c1` [Example 73, (E)-3-(3-fluoro-1H-indazol-6-yl)-N-((1S,2S)-2-methoxy-2,3-dihydro-1H-Inden-1-yl)acrylamide], the “mPTP Rat liver pIC50” value in the series on mPTP (setting [3]) was 8.1. In addition, the solubility at 2 h in series [1] (setting [5]) was 37.5 µM (≈ 13.2 µg/mL). In addition, the hepatocyte CLint at 1 µM in series [2] is 73.5 µL/min/1e6 cells.
